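48-hour exposure; five concentrations; linearly interpolated endpoints. Definition used: TGI = concentration required for complete inhibition of growth.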
Tests used:
Test in all cases: NCI anticancer screen, dose series, 48 h
SK-MEL-28 melanoma = test system: SK-MEL-28 melanoma
UACC-257 melanoma = test system: UACC-257 melanoma
HOP-92 NSCLC = test system: HOP-92 NSCLC
COLO 205 colon = test system: COLO 205 colon
SW-620 colon = test system: SW-620 colon
RPMI-8226 leukemia = test system: RPMI-8226 leukemia
HS 578T breast = test system: HS 578T breast
MOLT-4 leukemia = test system: MOLT-4 leukemia
HL-60(TB) leukemia = test system: HL-60(TB) leukemia
T-47D breast = test system: T-47D breast
A549 NSCLC = test system: A549 NSCLC

CCOC(C[Se]CC(OCC)OCC)OCC
TGI (SK-MEL-28 melanoma): > 100 µM | TGI (UACC-257 melanoma): > 100 µM | TGI (HOP-92 NSCLC): > 100 µM | TGI (COLO 205 colon): > 100 µM | TGI (SW-620 colon): > 100 µM | TGI (RPMI-8226 leukemia): > 100 µM | TGI (HS 578T breast): 45.9 µM | TGI (MOLT-4 leukemia): > 100 µM | TGI (HL-60(TB) leukemia): 76.5 µM | TGI (T-47D breast): > 100 µM | TGI (A549 NSCLC): > 100 µM

CCN(CC)Cc1nc2sc3c(c2c(=O)n1-c1ccccc1)CCCC3
TGI (SK-MEL-28 melanoma): > 100 µM | TGI (UACC-257 melanoma): 47.5 µM | TGI (HOP-92 NSCLC): 51.4 µM | TGI (COLO 205 colon): 43.6 µM | TGI (SW-620 colon): 37.3 µM | TGI (RPMI-8226 leukemia): 81.9 µM | TGI (HS 578T breast): 93.6 µM | TGI (MOLT-4 leukemia): 56.7 µM | TGI (HL-60(TB) leukemia): > 100 µM | TGI (T-47D breast): 44.7 µM | TGI (A549 NSCLC): 55 µM

CC(=O)NCCCCNCCCNC(C)=O
TGI (SK-MEL-28 melanoma): > 100 µM | TGI (UACC-257 melanoma): > 100 µM | TGI (HOP-92 NSCLC): > 100 µM | TGI (COLO 205 colon): > 100 µM | TGI (SW-620 colon): > 100 µM | TGI (RPMI-8226 leukemia): > 100 µM | TGI (HS 578T breast): > 100 µM | TGI (MOLT-4 leukemia): > 100 µM | TGI (HL-60(TB) leukemia): > 100 µM | TGI (T-47D breast): > 100 µM | TGI (A549 NSCLC): > 100 µM

C=CC[C@H]1[C@@H](O[Si](C)(C)C(C)(C)C)[C@H](n2ccc(=O)[nH]c2=O)O[C@@H]1CO[Si](C)(C)C(C)(C)C
TGI (SK-MEL-28 melanoma): 3.01 µM | TGI (UACC-257 melanoma): 5.34 µM | TGI (HOP-92 NSCLC): 2.72 µM | TGI (COLO 205 colon): 3.4 µM | TGI (SW-620 colon): 3.39 µM | TGI (RPMI-8226 leukemia): 6.03 µM | TGI (HS 578T breast): 12.2 µM | TGI (MOLT-4 leukemia): 8.66 µM | TGI (HL-60(TB) leukemia): 2.59 µM | TGI (T-47D breast): 9.11 µM | TGI (A549 NSCLC): 5.8 µM

CC(=O)c1ccc(N=Nc2ccc3nonc3c2N)cc1
TGI (SK-MEL-28 melanoma): > 100 µM | TGI (UACC-257 melanoma): > 100 µM | TGI (HOP-92 NSCLC): > 100 µM | TGI (COLO 205 colon): > 100 µM | TGI (SW-620 colon): > 100 µM | TGI (RPMI-8226 leukemia): > 100 µM | TGI (HS 578T breast): > 100 µM | TGI (MOLT-4 leukemia): > 100 µM | TGI (HL-60(TB) leukemia): > 100 µM | TGI (T-47D breast): > 100 µM | TGI (A549 NSCLC): > 100 µM

CN1CC2=C(OC(N)=C(C#N)C2c2cccs2)/C(=C/c2cccs2)C1 (configuration not stated)
TGI (SK-MEL-28 melanoma): > 100 µM | TGI (UACC-257 melanoma): > 100 µM | TGI (HOP-92 NSCLC): > 100 µM | TGI (COLO 205 colon): > 100 µM | TGI (SW-620 colon): > 100 µM | TGI (RPMI-8226 leukemia): > 42.7 µM | TGI (HS 578T breast): > 100 µM | TGI (MOLT-4 leukemia): > 26.5 µM | TGI (HL-60(TB) leukemia): 12 µM | TGI (T-47D breast): 1.47 µM | TGI (A549 NSCLC): > 75.2 µM

Cn1ccnc1Sc1ccc(/C=N/NC(=O)c2ccccc2O)cc1[N+](=O)[O-]
TGI (SK-MEL-28 melanoma): > 100 µM | TGI (UACC-257 melanoma): > 100 µM | TGI (HOP-92 NSCLC): > 100 µM | TGI (COLO 205 colon): 56.8 µM | TGI (SW-620 colon): > 100 µM | TGI (RPMI-8226 leukemia): 41.2 µM | TGI (HS 578T breast): > 100 µM | TGI (MOLT-4 leukemia): 13.3 µM | TGI (HL-60(TB) leukemia): > 100 µM | TGI (T-47D breast): > 100 µM | TGI (A549 NSCLC): > 100 µM

COC(=O)Cc1ccc2c(c1)Sc1ccc(CC(=O)OC)cc1N2C
TGI (SK-MEL-28 melanoma): > 100 µM | TGI (UACC-257 melanoma): > 93 µM | TGI (HOP-92 NSCLC): > 100 µM | TGI (COLO 205 colon): 53.8 µM | TGI (SW-620 colon): > 100 µM | TGI (RPMI-8226 leukemia): > 100 µM | TGI (HS 578T breast): > 89.3 µM | TGI (MOLT-4 leukemia): > 100 µM | TGI (HL-60(TB) leukemia): > 93.3 µM | TGI (T-47D breast): > 100 µM | TGI (A549 NSCLC): > 90.3 µM

CCC1C(=O)C[C@H]2[C@@H]3C(O)CC4=CC(=O)CC[C@]4(C)[C@H]3CC[C@]12C (some centres not stated)
TGI (SK-MEL-28 melanoma): > 50 µM | TGI (UACC-257 melanoma): > 50 µM | TGI (HOP-92 NSCLC): > 50 µM | TGI (COLO 205 colon): > 50 µM | TGI (SW-620 colon): > 50 µM | TGI (RPMI-8226 leukemia): > 50 µM | TGI (HS 578T breast): > 50 µM | TGI (MOLT-4 leukemia): > 50 µM | TGI (HL-60(TB) leukemia): > 50 µM | TGI (T-47D breast): > 50 µM | TGI (A549 NSCLC): > 50 µM

COc1ccc2c(c1)OC(c1cccnc1)C(c1ccccc1)C2=O (configuration not stated)
TGI (SK-MEL-28 melanoma): > 100 µM | TGI (UACC-257 melanoma): > 100 µM | TGI (HOP-92 NSCLC): > 100 µM | TGI (COLO 205 colon): > 100 µM | TGI (SW-620 colon): > 100 µM | TGI (RPMI-8226 leukemia): > 100 µM | TGI (HS 578T breast): > 100 µM | TGI (MOLT-4 leukemia): > 100 µM | TGI (HL-60(TB) leukemia): > 100 µM | TGI (T-47D breast): > 100 µM | TGI (A549 NSCLC): > 100 µM

O=C(Nc1ccccc1)O/N=C(/CBr)c1ccccc1
TGI (SK-MEL-28 melanoma): 43.2 µM | TGI (UACC-257 melanoma): 35.5 µM | TGI (HOP-92 NSCLC): 33.2 µM | TGI (COLO 205 colon): 32.9 µM | TGI (SW-620 colon): > 100 µM | TGI (RPMI-8226 leukemia): 51.3 µM | TGI (HS 578T breast): 90.6 µM | TGI (MOLT-4 leukemia): > 100 µM | TGI (HL-60(TB) leukemia): 32.5 µM | TGI (T-47D breast): 32.6 µM | TGI (A549 NSCLC): > 100 µM

CC(C)/C(Cl)=N/OC(=O)Nc1ccc(F)c(Cl)c1
TGI (SK-MEL-28 melanoma): 5.46 µM | TGI (UACC-257 melanoma): 26.5 µM | TGI (HOP-92 NSCLC): 3 µM | TGI (COLO 205 colon): 3.25 µM | TGI (SW-620 colon): 3.47 µM | TGI (RPMI-8226 leukemia): 2.97 µM | TGI (HS 578T breast): 53.3 µM | TGI (MOLT-4 leukemia): 4.72 µM | TGI (HL-60(TB) leukemia): 5.23 µM | TGI (T-47D breast): 12.7 µM | TGI (A549 NSCLC): 37.4 µM

COC(=O)/C=C/c1ccccc1N=[S@](C)(=O)c1ccc(C)cc1
TGI (SK-MEL-28 melanoma): > 100 µM | TGI (UACC-257 melanoma): 56.8 µM | TGI (HOP-92 NSCLC): > 100 µM | TGI (COLO 205 colon): 26.7 µM | TGI (SW-620 colon): > 100 µM | TGI (RPMI-8226 leukemia): 61.3 µM | TGI (HS 578T breast): 64.6 µM | TGI (MOLT-4 leukemia): > 100 µM | TGI (HL-60(TB) leukemia): 7.25 µM | TGI (T-47D breast): > 100 µM | TGI (A549 NSCLC): > 100 µM

CC(C)CCCC(C)[C@H]1CCC2[C@@H]3CCC4Cc5nc6c(nc5C[C@]4(C)C3CC[C@@]21C)CC1CC[C@@H]2C(C[C@@H](O)[C@@]3(C)C2C[C@@H]2OC4(CCC(C)CO4)C(C)[C@@H]23)[C@@]1(C)C6 (some centres not stated)
TGI (SK-MEL-28 melanoma): > 100 µM | TGI (UACC-257 melanoma): > 100 µM | TGI (HOP-92 NSCLC): > 100 µM | TGI (COLO 205 colon): > 100 µM | TGI (SW-620 colon): > 100 µM | TGI (RPMI-8226 leukemia): > 100 µM | TGI (HS 578T breast): > 100 µM | TGI (MOLT-4 leukemia): > 100 µM | TGI (HL-60(TB) leukemia): > 100 µM | TGI (T-47D breast): > 100 µM | TGI (A549 NSCLC): > 100 µM

Cc1ccc(C(=O)N(C2CCCCC2)C2CCCCC2)cc1N=NN(C)C
TGI (SK-MEL-28 melanoma): 17.9 µM | TGI (UACC-257 melanoma): 28 µM | TGI (HOP-92 NSCLC): 23.4 µM | TGI (COLO 205 colon): 33.6 µM | TGI (SW-620 colon): 24.5 µM | TGI (RPMI-8226 leukemia): > 100 µM | TGI (HS 578T breast): 43.9 µM | TGI (MOLT-4 leukemia): 76.7 µM | TGI (HL-60(TB) leukemia): 23.7 µM | TGI (T-47D breast): 38.7 µM | TGI (A549 NSCLC): 31.8 µM

Cc1ccc(S(=O)(=O)N/C(=C\C=C\c2ccccc2)C(=O)C(C)(C)C)cc1
TGI (SK-MEL-28 melanoma): > 100 µM | TGI (UACC-257 melanoma): > 100 µM | TGI (HOP-92 NSCLC): 71.9 µM | TGI (COLO 205 colon): > 100 µM | TGI (SW-620 colon): > 100 µM | TGI (RPMI-8226 leukemia): 75.9 µM | TGI (HS 578T breast): > 100 µM | TGI (MOLT-4 leukemia): > 100 µM | TGI (HL-60(TB) leukemia): > 100 µM | TGI (T-47D breast): > 100 µM | TGI (A549 NSCLC): > 100 µM

CC(C)(CO)CNc1cc(=O)[nH]c(N)n1
TGI (SK-MEL-28 melanoma): > 100 µM | TGI (UACC-257 melanoma): > 100 µM | TGI (HOP-92 NSCLC): > 100 µM | TGI (COLO 205 colon): > 100 µM | TGI (SW-620 colon): > 100 µM | TGI (RPMI-8226 leukemia): > 100 µM | TGI (HS 578T breast): > 100 µM | TGI (MOLT-4 leukemia): > 100 µM | TGI (HL-60(TB) leukemia): > 100 µM | TGI (T-47D breast): > 100 µM | TGI (A549 NSCLC): > 100 µM

Reference: PubChem BioAssay (NCI)
